The values that follow are results of earlier work, collected in US20210007979A1 (FULTON MEDICINAL S.P.A., priority 2018, published 2021).

Where a name gives a salt, the structure may show the parent alone.

Assay in data set [1]: not given
This is another data set of the same source.

For `CCCc1nn(C)c2c(=O)[nH]c(-c3cc(S(=O)(=O)N4CCN(C)CC4)ccc3OCC)nc12` [sildenafil citrate, Sildenafil citrate], the Solubility in water entry was “sparingly soluble”. In addition, in data set [1], the “Permeability of the oral mucosae” value is reported as “low permeability”.
